Earlier results, collected in patent US11643424B2, “Cardiopathy-reducing phosphodiester lipids” (Signpath Pharma, Inc., priority 2018, dated 2023).

Test system: K+ current
Settings: cited from earlier work

SMILES: CCCCc1oc2ccc(NS(C)(=O)=O)cc2c1C(=O)c1ccc(OCCCN(CCCC)CCCC)cc1 [Dronedarone]
- reduction of K+ current: 69%
